US9713598B2, “Treatment of insulin resistance associated with prolonged physical inactivity” (ABBOTT LABORATORIES, priority 2013, dated 2017)
Values joined by “and” are separate entries in the source; they are usually repeats but may differ in a detail not shown here. Equal entries are not always repeated.

Key:
Format in all cases: in vivo
C-peptide = test: 10-day bed rest study in healthy elderly subjects: circulating C-peptide (RBM Human Discovery map, serum)
Description: (§1) The following inclusion criteria were verified at screening: male or female ≧60 to ≦79 years of age; body mass index (BMI) ≧20 but ≦35; ambulatory with a Short Performance Physical Battery (SPPB) score of ≧9 (fully functional with no mobility limitations); compliance with prescribed activity level. Exclusion criteria ruled out subjects who had undergone recent major surgery, had active malignancy (exception basal or squamous cell skin carcinoma or carcinoma in situ of the uterine cervix); history of Deep Vein Thrombosis (DVT) or other hypercoagulation disorders; refractory anemia; history of diabetes or fasting blood glucose value >126 mg/dL; presence of partial or full artificial limb; kidney disease or serum creatinine >1.4 mg/dL; evidence of cardiovascular disease assessed during resting or exercise EKG; untreated hypothyroidism; liver disease; chronic or acute GI disease; uncontrolled severe diarrhea, nausea or vomiting; were actively pursuing weight loss; were enrolled in other clinical trials; could not refrain from smoking over the bed rest study period or could not discontinue anticoagulant therapy over bed rest period. Potential subjects were also excluded if they were taking any medications known to affect protein metabolism (e.g., progestational agents, steroids, growth hormone, dronabinol, marijuana, HMB, free amino acid supplements, dietary supplements to aid weight loss).
(§2) The 24 healthy subjects initially involved in the study were randomized into two groups. Subjects in the treatment group received two β-hydroxy-β-methylbutyrate (HMB) sachets containing 1.5 grams Ca-HMB (TSI, Salt Lake City, Utah), 4 grams maltodextrin and 200 mg Calcium with additional sweetener and flavoring groups. Subjects in the control group received two control sachets that were identical to the HMB sachets with the exclusion Ca-HMB. This study was a double-blinded study. Neither the investigators nor the subjects were informed of the identity of any of the study products during the clinical portion of the study. Subjects were instructed to consume twice daily by mixing each sachet into a non-caloric, non-caffeinated, non-carbonated, non-milk-based beverage of their choice. Treatment with HMB or Control was initiated 5 days prior to bed rest and was continued until the end of the rehabilitation period.
(§3) For diet stabilization over the pre-bed rest and bed rest period, subjects were fed a metabolically controlled diet providing the RDA for protein intake (0.8 g protein/kg body weight per day). Total calorie needs were estimated using the Harris-Benedict equation for resting energy expenditure according to the following equation: For women=[655+(9.56×body weight in kg)+(1.85×height in cm)−(4.68×age in years)]×AF, or, For men=[66+(13.7×body weight in kg)+(5×height in cm)−([…]]×AF, where AF=activity factor of 1.6 for the ambulatory and 1.35 for the bed rest periods. Given the total calorie and protein intakes, the remainder of the diet was manipulated to keep the non-protein calories at about 60% from carbohydrates and 40% from fat. Water was provided ad libitum.
(§4) After a diet stabilization of 5 days (ambulatory period), subjects remained in bed continuously for 10 days. While confined to bed rest, subjects were allowed to use the bedside commode for urination or were taken in a wheelchair for toileting. […] Subjects were constantly monitored by nursing staff and received a daily physical examination by the study physician. […]

[1] = system: Insulin-like Growth Factor-Binding Protein 2 (IGFBP-2); test: 10-day bed rest study in healthy elderly subjects: circulating IGFBP-2 (RBM Human Discovery map, serum)
Description: as §1, §2, §3, §4

Leptin = test: 10-day bed rest study in healthy elderly subjects: circulating Leptin (RBM Human Discovery map, serum)
Description: as §1, §2
For diet stabilization over the pre-bed rest and bed rest period, subjects were fed a metabolically controlled diet providing the RDA for protein intake (0.8 g protein/kg body weight per day). […]
After a diet stabilization of 5 days (ambulatory period), subjects remained in bed continuously for 10 days. […] Subjects were constantly monitored by nursing staff and received a daily physical examination by the study physician. […]

[2] = HMB Treatment (n = 10), end of 10 days of bed rest
[3] = HMB Treatment (n = 10), two sachets of 1.5 g Ca-HMB daily, started 5 days prior to bed rest, fasted blood, Day 1 of bed rest

CC(C)(O)CC(=O)O [HMB, β-hydroxy-β-methylbutyric acid]
percent increase in blood levels of C-peptide (C-peptide; 10 HMB treated subjects, after 10 days of bed rest, control 43.0%): 29.59% | C-peptide, Post-bed rest Mean (C-peptide; [2]): 1.69 ng/mL | C-peptide, Change (C-peptide; HMB Treatment (n = 10), pre- to post-bed rest, 10 days, control change 0.54 ± 0.22): 0.28 ng/mL and 0.28 ± 0.08 ng/mL | C-peptide, Pre-bed rest Mean (C-peptide; [3]): 1.41 ng/mL | effect on bed-rest change in blood levels of C-peptide versus untreated control subjects (C-peptide; prolonged bed rest, 10 days): reduces or attenuates the increase in blood levels of C-peptide | percent change in blood levels of IGFBP-2 ([1]; 10 HMB treated subjects, after 10 days of bed rest, control −24.56%): −15.63% | IGFBP-2, Post-bed rest Mean [1, 2]: 106.97 ng/mL | IGFBP-2, Change ([1]; HMB Treatment (n = 10), pre- to post-bed rest, 10 days, control change −30.54 ± 13.64): -20.89 ng/mL and -20.89 ± 6.84 ng/mL | IGFBP-2, Pre-bed rest Mean [1, 3]: 127.86 ng/mL | effect on bed-rest change in blood levels of IGFBP-2 versus control subjects ([1]; prolonged bed rest, 10 days): reduces or attenuates the decrease in blood levels of IGFBP-2 | Leptin, Post-bed rest Mean (Leptin; [2]): 19.31 ng/mL | Leptin, Change (Leptin; HMB Treatment (n = 10), pre- to post-bed rest, 10 days, control change 5.06 ± 1.88): 4.11 ng/mL and 4.11 ± 1.89 ng/mL | Leptin, Pre-bed rest Mean (Leptin; [3]): 15.20 ng/mL | effect on bed-rest change in blood levels of Leptin versus untreated control subjects (Leptin; prolonged bed rest, 10 days): reduces or attenuates the increase in blood levels of Leptin
